Results: US9975888B2, “Aryl linked imidazole and triazole derivatives and methods of use thereof for improving the pharmacokinetics of a drug” (MERCK SHARP & DOHME CORP., priority 2013, dated 2018)

Tests used:
Format in all cases: biochemical
CYP1A2 = target: T1, CYP1A2 (Homo sapiens, UniProt P05177); test: Cocktail assay for CYPs, phenacetin O-deethylation (CYP1A2), human liver microsomes; details: 10 μM phenacetin, 0.1 mg/mL human liver microsomes, 10 min at 37° C.; read-out: CYP IC50 (nM) 1A2
T1 construct: 0.1 mg/mL protein human liver microsomes (BD Gentest); tissue BD Gentest; host or cells: human liver microsomes
T1 sequence (P05177 1-516): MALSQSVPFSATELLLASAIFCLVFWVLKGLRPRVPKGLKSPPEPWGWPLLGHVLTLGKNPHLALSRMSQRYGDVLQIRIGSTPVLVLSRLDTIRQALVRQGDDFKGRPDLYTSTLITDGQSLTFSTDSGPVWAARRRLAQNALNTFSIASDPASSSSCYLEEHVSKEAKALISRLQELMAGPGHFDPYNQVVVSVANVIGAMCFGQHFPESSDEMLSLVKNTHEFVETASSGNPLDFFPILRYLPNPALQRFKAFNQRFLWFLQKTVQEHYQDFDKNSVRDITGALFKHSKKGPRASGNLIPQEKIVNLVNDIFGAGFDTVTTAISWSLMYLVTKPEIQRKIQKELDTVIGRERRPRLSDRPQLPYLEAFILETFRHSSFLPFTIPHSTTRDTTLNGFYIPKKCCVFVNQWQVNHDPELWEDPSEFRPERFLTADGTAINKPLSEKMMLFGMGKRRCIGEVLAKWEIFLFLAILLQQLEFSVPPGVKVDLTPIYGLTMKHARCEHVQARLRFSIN
Method: (§1) Determination of IC50 in a Cocktail Assay for CYPs 1A2, 2C9, 2C19, 2D6 and 3A4:
(§2) This assay was performed in a standard 96-well plate design. IC50 values were calculated from the percent inhibition observed for each test compound at 6 concentrations (for example, 0.0032, 0.016, 0.08, 0.4, 2 and 10 μM). The incubation substrate mix contains 10 μM phenacetin (1A2), 5 μM diclofenac (2C9), 30 μM mephenytoin (2C19), 5 μM dextromethorphan (2D6) and 2 μM midazolam (3A4), 0.1 mg/mL protein human liver microsomes (BD Gentest), 1 mM NAPDH, 3.3 mM MgCl2 and 100 mM potassium phosphate buffer (pH 7.4). The production of the metabolite of each probe substrate was determined after incubation for 10 min at 37° C. Quantitation of the metabolite peak area ratio against an internal standard (tolbutamide) was determined by LC/MS/MS analysis following acetonitrile treatment of the incubations.
(§3) Samples were analyzed in the MRM mode with a SCIEX API-4000 mass spectrometer (Applied Biosystems, Foster City, Calif.), with a Shimadzu LC-20 AD pump (Shimadzu corporation, Kyoto, JP) and a CTC PAL autosampler (Agilent Technologies, Switzerland). A Phenomenex, Luna, 5 nm, 100 A, 2.00×30 mm HPLC column was used for the separation. The mobile phases were: (A) 0.1% formic acid in water and (B) 0.1% formic acid in acetonitrile. The binary gradient was as follows.
(§4) The peak area ratio of the analyte to the internal standard was used to quantify the metabolite. The values of peak area ratios in the presence of test compound were compared to those of maximum or minimum controls and were expressed as % inhibition by interpolating between the maximum and minimum peak area ratios. Incubations with no inhibitor were defined as the maxima. The following equation was used to calculate the % inhibition: [1−[(X−Low control)/(High control−Low control)]]*100 For the IC50 calculation, SigmaPlot was used to plot the mean % inhibition versus the test compound concentrations and for non-linear regression analysis of the data. Depending on the range of data points defining the inhibition curve, the data may have been fit to the 4-parameter logistic equation.

CYP2C9 = target: T2, CYP2C9 (Homo sapiens, UniProt P11712); test: Cocktail assay for CYPs, diclofenac 4′-hydroxylation (CYP2C9), human liver microsomes; details: 5 μM diclofenac, 0.1 mg/mL human liver microsomes, 10 min at 37° C.; read-out: CYP IC50 (nM) 2C9
T2 construct: 0.1 mg/mL protein human liver microsomes (BD Gentest); tissue BD Gentest; host or cells: human liver microsomes
Method: as §1
as §2, with “IC50 values were calculated from the percent inhibition observed for each test compound at 6 concentrations (for example, 0.0032, 0.016, 0.08, 0.4, 2 and 10 μM).” left out
as §3, §4

CYP2C19 = target: T3, CYP2C19 (Homo sapiens, UniProt P33261); test: Cocktail assay for CYPs, mephenytoin 4′-hydroxylation (CYP2C19), human liver microsomes; details: 30 μM mephenytoin, 0.1 mg/mL human liver microsomes, 10 min at 37° C.; read-out: CYP IC50 (nM) 2C19
T3 construct: 0.1 mg/mL protein human liver microsomes (BD Gentest); tissue BD Gentest; host or cells: human liver microsomes
Method: as §1
as §2, with “IC50 values were calculated from the percent inhibition observed for each test compound at 6 concentrations (for example, 0.0032, 0.016, 0.08, 0.4, 2 and 10 μM).” left out
as §3, §4

CYP2D6 = target: T4, CYP2D6 (Homo sapiens, UniProt P10635); test: Cocktail assay for CYPs, dextromethorphan O-demethylation (CYP2D6), human liver microsomes; details: 5 μM dextromethorphan, 0.1 mg/mL human liver microsomes, 10 min at 37° C.; read-out: CYP IC50 (nM) 2D6
T4 construct: 0.1 mg/mL protein human liver microsomes (BD Gentest); tissue BD Gentest; host or cells: human liver microsomes
Method: as §1, §2, §3, §4

CYP3A4 [1] = target: T5, CYP3A4 (Homo sapiens, UniProt P08684); test: Cocktail assay for CYPs, midazolam 1′-hydroxylation (CYP3A4), human liver microsomes; parameters: 0.1 mg/mL protein human liver microsomes (BD Gentest); tissue BD Gentest; host or cells: human liver microsomes; details: 2 μM midazolam, 0.1 mg/mL human liver microsomes, 10 min at 37° C.; read-out: CYP IC50 (nM) 3A4 (MDZ)
Method: as §1, §2, §3, §4
Target sequence in this assay (P08684 whole entry): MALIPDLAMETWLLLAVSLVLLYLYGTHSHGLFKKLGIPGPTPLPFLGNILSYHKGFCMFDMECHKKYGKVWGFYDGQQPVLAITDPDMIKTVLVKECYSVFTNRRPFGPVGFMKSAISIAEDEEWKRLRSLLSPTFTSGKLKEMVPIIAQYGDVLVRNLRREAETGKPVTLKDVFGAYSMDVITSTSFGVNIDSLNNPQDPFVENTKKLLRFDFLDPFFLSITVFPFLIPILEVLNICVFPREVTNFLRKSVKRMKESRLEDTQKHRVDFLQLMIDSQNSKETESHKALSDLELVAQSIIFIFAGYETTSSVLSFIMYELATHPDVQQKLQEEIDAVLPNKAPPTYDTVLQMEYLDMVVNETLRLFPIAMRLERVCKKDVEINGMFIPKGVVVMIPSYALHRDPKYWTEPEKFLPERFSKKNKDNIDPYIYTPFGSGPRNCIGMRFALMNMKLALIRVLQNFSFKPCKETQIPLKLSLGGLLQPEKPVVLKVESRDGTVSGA

CYP3A4 [2] = target: T5, CYP3A4; test: IC50 vs CYP3A by inhibition of lopinavir metabolism in human liver microsomes; parameters: 0.01 mg/mL protein human liver microsomes (BD Gentest); tissue BD Gentest; host or cells: human liver microsomes; details: 1.5 μM lopinavir, 0.01 mg/mL human liver microsomes, 8 min at 37° C.; read-out: CYP IC50 (nM) 3A4 (LPV)
Method: Determination of IC50 vs CYP3A by Measurement of Inhibition of Lopinavir Metabolism
This assay was performed in a standard 96-well plate design. IC50 values were calculated from the percent inhibition observed for each test compound at 6 concentrations (for example, 0.098, 0.391, 1.56, 6.25, 25 and 100 nM). The incubation substrate mix contains 1.5 μM lopinavir, 0.01 mg/mL protein human liver microsomes (BD Gentest), 1 mM NAPDH, 3.3 mM MgCl2 and 100 mM potassium phosphate buffer (pH 7.4). The production of the sum of three hydroxylated metabolites (M2: 6-hydroxy lopinavir, M3: 4-hydroxy lopinavir, M4: 4-hydroxy lopinavir (epimer of M3), Kumar et al., 1999) was determined after incubation for 8 min at 37° C. Quantitation of the metabolite peak area ratio against an internal standard (tolbutamide) was determined by LC/MS/MS analysis following acetonitrile treatment of the incubations.
as §3, with “μm,” for “nm,”
Target sequence in this assay (P08684 2-503): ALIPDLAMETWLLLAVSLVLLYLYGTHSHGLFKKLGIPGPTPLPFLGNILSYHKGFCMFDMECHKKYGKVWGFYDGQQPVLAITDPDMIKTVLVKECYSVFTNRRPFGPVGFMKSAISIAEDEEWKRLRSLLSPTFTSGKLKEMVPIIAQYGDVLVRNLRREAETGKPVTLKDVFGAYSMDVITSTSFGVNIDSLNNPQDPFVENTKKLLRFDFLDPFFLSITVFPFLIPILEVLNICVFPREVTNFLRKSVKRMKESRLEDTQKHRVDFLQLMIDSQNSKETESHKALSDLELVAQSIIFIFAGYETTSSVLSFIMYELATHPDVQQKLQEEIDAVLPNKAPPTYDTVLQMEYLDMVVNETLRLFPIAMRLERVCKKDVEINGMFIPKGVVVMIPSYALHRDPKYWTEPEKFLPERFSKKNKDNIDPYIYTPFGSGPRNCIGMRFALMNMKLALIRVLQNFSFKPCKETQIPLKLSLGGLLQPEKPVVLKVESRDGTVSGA
The peak area ratio of the analyte to the internal standard was used to quantify the metabolite. The values of peak area ratios in the presence of test compound were compared to those of maximum or minimum controls and were expressed as % inhibition by interpolating between the maximum and minimum peak area ratios. Incubations with no inhibitor were defined as the maxima and with 5 μM ketoconazole were defined as the minima.
The following equation was used to calculate the % inhibition: [1−[(X−Low control)/(High control−Low control)]]*100
For the IC50 calculation, SigmaPlot was used to plot the mean % inhibition versus the test compound concentrations and for non-linear regression analysis of the data. Depending on the range of data points defining the inhibition curve, the data may have been fit to the 4-parameter logistic equation.

T2 sequence (P11712 whole entry): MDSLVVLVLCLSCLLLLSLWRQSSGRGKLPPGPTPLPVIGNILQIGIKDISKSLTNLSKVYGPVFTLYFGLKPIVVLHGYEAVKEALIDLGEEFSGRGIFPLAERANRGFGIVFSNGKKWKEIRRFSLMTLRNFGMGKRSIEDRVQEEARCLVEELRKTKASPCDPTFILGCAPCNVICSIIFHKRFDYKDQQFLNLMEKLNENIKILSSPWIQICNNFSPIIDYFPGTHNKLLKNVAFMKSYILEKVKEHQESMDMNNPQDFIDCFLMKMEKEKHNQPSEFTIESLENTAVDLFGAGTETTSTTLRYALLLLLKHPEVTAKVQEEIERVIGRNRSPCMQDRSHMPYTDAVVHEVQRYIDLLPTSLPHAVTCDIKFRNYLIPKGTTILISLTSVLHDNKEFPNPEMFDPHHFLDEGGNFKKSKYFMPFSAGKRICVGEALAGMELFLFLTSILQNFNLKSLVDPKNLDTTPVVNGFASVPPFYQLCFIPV
T3 sequence (P33261 whole entry): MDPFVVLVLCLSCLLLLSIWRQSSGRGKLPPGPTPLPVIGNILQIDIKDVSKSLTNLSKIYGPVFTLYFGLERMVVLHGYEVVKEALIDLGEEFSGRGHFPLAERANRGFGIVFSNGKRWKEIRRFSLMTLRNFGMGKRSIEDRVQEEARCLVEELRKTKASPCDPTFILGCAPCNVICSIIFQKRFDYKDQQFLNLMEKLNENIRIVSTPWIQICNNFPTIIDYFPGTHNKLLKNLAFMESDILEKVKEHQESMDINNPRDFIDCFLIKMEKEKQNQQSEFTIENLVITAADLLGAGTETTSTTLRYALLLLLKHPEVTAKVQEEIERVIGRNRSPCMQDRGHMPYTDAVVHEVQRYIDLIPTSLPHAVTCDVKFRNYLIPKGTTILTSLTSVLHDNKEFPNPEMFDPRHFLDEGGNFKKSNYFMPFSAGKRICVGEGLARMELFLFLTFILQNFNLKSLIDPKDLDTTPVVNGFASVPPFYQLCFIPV
T4 sequence (P10635 whole entry): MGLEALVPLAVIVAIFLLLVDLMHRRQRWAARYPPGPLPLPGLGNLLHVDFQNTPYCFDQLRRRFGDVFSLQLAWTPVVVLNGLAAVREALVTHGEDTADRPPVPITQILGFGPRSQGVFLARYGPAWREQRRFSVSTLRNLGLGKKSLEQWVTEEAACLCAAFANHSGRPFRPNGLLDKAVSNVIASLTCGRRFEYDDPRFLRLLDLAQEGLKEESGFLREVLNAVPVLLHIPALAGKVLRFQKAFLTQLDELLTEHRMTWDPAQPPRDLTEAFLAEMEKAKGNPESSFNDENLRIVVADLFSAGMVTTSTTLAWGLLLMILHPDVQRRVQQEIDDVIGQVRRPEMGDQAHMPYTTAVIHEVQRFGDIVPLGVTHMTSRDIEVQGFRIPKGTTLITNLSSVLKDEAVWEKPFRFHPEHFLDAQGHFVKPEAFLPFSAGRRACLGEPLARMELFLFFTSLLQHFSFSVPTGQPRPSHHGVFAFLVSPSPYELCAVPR

IC50 (CYP1A2) | IC50 (CYP2C9) | IC50 (CYP2C19) | IC50 (CYP2D6) | IC50 (CYP3A4 [1]) | IC50 (CYP3A4 [2]) | SMILES
> 10000 nM | > 10000 nM | > 10000 nM | 1830 nM | 64.4 nM | ≥ 100 nM | O=C(c1cccnc1)N1CCCC1c1ccccc1-c1cncn1CCc1ccc(F)cc1 (single isomer, unassigned) [Compound 42a, (R or S)-(2-(2-(1-(4-fluorophenethyl)-1H-imidazol-5-yl)phenyl)pyrrolidin-1-yl) (pyridin-3-yl) methanone]
> 10000 nM | > 10000 nM | > 10000 nM | > 10000 nM | 13.1 nM | 9.3 nM | O=C(c1cccnc1)N1CCCC1c1ccccc1-c1cncn1CCc1ccc(F)cc1 (single isomer, unassigned) [Compound 42b, (R or S)-(2-(2-(1-(4-fluorophenethyl)-1H-imidazol-5-yl)phenyl)pyrrolidin-1-yl) (pyridin-3-yl) methanone]
> 10000 nM | > 10000 nM | 3270 nM | > 10000 nM | 36.3 nM | 35.2 nM | O=C(c1ccc(N2CCOCC2)nc1)N1CCCC1c1ccccc1-c1cncn1CCc1ccc(F)cc1 (single isomer, unassigned) [Compound 43a, (R or S)-(2-(2-(1-(4-fluorophenethyl)-1H-imidazol-5-yl)phenyl)pyrrolidin-1-yl) (6-morpholino-pyridin-3-yl) methanone]
4490 nM | 7950 nM | > 10000 nM | 5360 nM | 5.8 nM | 2 nM | O=C(c1ccc(N2CCOCC2)nc1)N1CCCC1c1ccccc1-c1cncn1CCc1ccc(F)cc1 (single isomer, unassigned) [Compound 43b, (R or S)-(2-(2-(1-(4-fluorophenethyl)-1H-imidazol-5-yl)phenyl)pyrrolidin-1-yl) (6-morpholino-pyridin-3-yl) methanone]

More lines, now with the values behind:

SMILES | IC50 (CYP1A2) | IC50 (CYP2C9) | IC50 (CYP2C19) | IC50 (CYP2D6) | IC50 (CYP3A4 [1]) | IC50 (CYP3A4 [2])
O=S(=O)(c1ccc(NCC(O)C2CC2)nc1)N1CCCC1c1ccccc1-c1cncn1CCc1ccc(F)cc1 (single isomer, unassigned) [Compound 34a, 1-cyclopropyl-2-((5-(((R or S)-2-(2-(1-(4-fluorophenethyl)-1H-imidazol-5-yl)phenyl)pyrrolidin-1-yl)sulfonyl)pyridin-2-yl)amino)ethanol] | 7020 nM | 2620 nM | 2680 nM | 1670 nM | 10.4 nM | 4.5 nM
O=S(=O)(c1ccc(NCC(O)C2CC2)nc1)N1CCCC1c1ccccc1-c1cncn1CCc1ccc(F)cc1 (single isomer, unassigned) [Compound 34b, 1-cyclopropyl-2-((5-(((R or S)-2-(2-(1-(4-fluorophenethyl)-1H-imidazol-5-yl)phenyl)pyrrolidin-1-yl)sulfonyl)pyridin-2-yl)amino)ethanol] | > 10000 nM | 1900 nM | 4400 nM | 2420 nM | 5.5 nM | 1 nM
O=S(=O)(c1ccc(N2CCN(CCO)CC2)nc1)N1CCCC1c1ccccc1-c1cncn1CCc1ccc(F)cc1 (single isomer, unassigned) [Compound 35a, (R or S)-2-(4-(5-((2-(2-(1-(4-fluorophenethyl)-1H-imidazol-5-yl)phenyl)pyrrolidin-1-yl)sulfonyl)pyridin-2-yl)piperazin-1-yl) ethanol] | > 10000 nM | 8600 nM | > 10000 nM | 4600 nM | 8.1 nM | 4.2 nM
O=S(=O)(c1ccc(N2CCN(CCO)CC2)nc1)N1CCCC1c1ccccc1-c1cncn1CCc1ccc(F)cc1 (single isomer, unassigned) [Compound 35b, (R or S)-2-(4-(5-((2-(2-(1-(4-fluorophenethyl)-1H-imidazol-5-yl)phenyl)pyrrolidin-1-yl)sulfonyl)pyridin-2-yl)piperazin-1-yl)ethanol] | > 10000 nM | 6930 nM | 9720 nM | 3060 nM | 4 nM | 0.9 nM
CC(C)OC(=O)N1CCCC1c1ccccc1-c1cncn1CCc1ccc(F)cc1 (single isomer, unassigned) [Compound 39a, (R or S)-isopropyl 2-(2-(1-(4-fluorophenethyl)-1H-imidazol-5-yl)phenyl) pyrrolidine-1-carboxylate] | 3840 nM | 2200 nM | 2730 nM | 9040 nM | 7.6 nM | 4.3 nM
CC(C)OC(=O)N1CCCC1c1ccccc1-c1cncn1CCc1ccc(F)cc1 (single isomer, unassigned) [Compound 39b, (R or S)-isopropyl 2-(2-(1-(4-fluorophenethyl)-1H-imidazol-5-yl)phenyl) pyrrolidine-1-carboxylate] | > 10000 nM | 6380 nM | 4740 nM | 8580 nM | 34.5 nM | 28.2 nM
